These results are taken from patent publication US20070173787A1, “Thin-film nitinol based drug eluting stent” (priority 2005, published 2007).

The test system of data set [1] is human coronary artery smooth muscle cells. Description: Anti-proliferative activity in synchronized cultured human coronary artery smooth muscle cells stimulated with two percent fetal bovine serum. The data set is classed as cell-based. The source says: The multiple curves represent various concentrations of topotecan ranging from zero to three hundred nanomolar concentrations.
The multiple curves represent various concentrations of etoposide ranging from zero to eight hundred nanomolar concentrations.
The multiple curves represent various concentrations of Panzem® ranging from zero to 100 micromolar concentrations.

In data set [2] the test system is human coronary artery smooth muscle cell. The settings on record: concentrations up to 30,000.00 nanomolar, FIG. 69. The text has this: In vitro cytotoxicity tests or assays may be utilized to determine if drugs, agents and/or compounds are potentially toxic and the level of toxicity. Essentially, in vitro cytotoxicity assays determine acute necrotic effects by a drug causing direct cellular damage. The idea behind these assays is that toxic chemicals affect basic functions of cells which are common to all cells. […] There are a number of different assays that may be utilized. In the present invention, the cytotoxicity assay utilized is based upon the measurement of cellular metabolic activity. A reduction in metabolic activity is an indication of cellular damage. Tests that can measure metabolic function measure cellular ATP levels or mitochondrial activity via MTS metabolism. FIG. 69 is a graphical representation of the results of an MTS assay of Panzem®.

Data set [3] concerns platelet deposition and thrombus formation on the stent surface. Briefly: In vitro bovine blood loop model (In 111 labeled platelets). The note with it: FIG. 83. The source says:
The anti-thrombotic efficacy of the above-described three configurations is illustrated in FIG. 83. FIG. 83 illustrates the anti-thrombotic properties of the sirolimus/cilostazol combination coatings described above in an in vitro bovine blood loop model. In the in vitro bovine blood loop model, fresh bovine blood is heparinized to adjust for acute clotting time (ACT) of about two hundred (200) seconds. The platelet content in the blood is labeled through the use of Indium 111. In the study, a stent is deployed in a silicone tube, which is part of a closed loop system for blood circulation. The heparinzed blood is circulated through the closed loop system by means of a circulating pump. Blood clots and thrombus builds up on a stent surface over time and reduces the flow rate of blood through the stented loop. […] The control drug eluting stent is the Cypher® sirolimus eluting coronary stent available from Cordis Corporation. Bar 8304 is a stent coated with heparin and is available from Cordis Corporation under the […]® on the Bx Velocity® coronary stent trademark. Bar 8306 is a stent configured as set forth with respect to the architecture illustrated in FIG. 76. Bar 8308 is a stent configured as set forth with respect to the architecture illustrated in FIG. 80. Bar 8310 is a stent configured as set forth with respect to the architecture illustrated in FIG. 82.

Data set [4] is described as follows: In vivo release kinetics from stent coatings in porcine pharmacokinetics studies. The note with it: after eight (8) days of implantation; single layer sirolimus/cilostazol EVA/BMA coating with 100 μg BMA overcoat (FIG. 86), FIG. 84. The source says: The topcoat is two hundred micro grams.
The basecoat is applied to Bx Velocity® stents and implanted into Yorkshire pigs.
Another critical parameter for the performance of the thrombus resistance of a device coated with cilostazol is the duration of the drug release from the coating. This is of particular significance in the two weeks after device implantation. […] The purpose of the porcine PK study is to assess the local pharmacokinetics of a drug eluting stent at a given implantation time. Normally three stents are implanted in three different coronary arteries in a pig for a given time point and then retrieved for total drug recovery analysis. The stents are retrieved at predetermined time points; namely, 1, 3 and 8 days. The stents are extracted and the total amount of drug remaining on the stents is determined by analysis utilizing HPLC (high performance liquid chromatography) for total drug amount. The difference between the original amount of drug on the stent and the amount of drug retrieved at a given time represents the amount of drug released in that period. The continuous release of drug into surrounding arterial tissue is what prevents the neointimal growth and restenosis in the coronary artery. A normal plot represents the percentage of total drug released (%, y-axis) vs. time of implantation (day, x-axis). […] In this exemplary configuration, the stent 8600 is coated with two layers. The first layer 8602 comprises a combination of sirolimus, cilostazol and a copolymer matrix of EVA/BMA. The second layer or diffusion overcoat 8604 comprises only BMA. More specifically, in this embodiment, the first layer 8602 comprises a combination of sirolimus and cilastazol that is forty-five (45) percent by weight of the total weight of the first layer 8602 and an EVA/BMA copolymer matrix that is fifty-five (55) percent by weight of the total weight of the first layer 8602. The diffusion overcoat comprises one hundred (100 μg) micrograms of BMA.
Pigs are an established animal species for intravascular stent studies and accepted for such studies by the appropriate regulatory agencies. This in vivo study utilized male pigs of the species Sus Scrofa and strain Yoorkshire pigs. S.M.A.R.T.™ stents, available from Cordis Corporation, were placed into the iliac and femoral arteries, PALMAZ® GENESIS™ stents, available from Cordis Corporation, were placed in the renal arteries and CYPHER™ stents, available from Cordis Corporation, were placed in the coronary arteries.

For data set [5], the system named is human coronary artery smooth muscle cell. Briefly: In vitro cell culture study of human coronary artery smooth muscle cell proliferation (trichostatin A). The data set is classed as cell-based. The text has this:
FIG. 51 is a graph of the inhibition of coronary artery smooth muscle cells by trichostatin A in a cell culture study.

For a further data set, the system named is tumor cell lines. The settings on record: cited from earlier work.

SMILES strings stand for the structures.

Regarding `COc1cc2c(cc1O)CC[C@@H]1[C@@H]2CC[C@]2(C)[C@@H](O)CC[C@@H]12` [Panzem®, 2-methoxyestradiol], the anti-proliferative activity entry in data set [1] (FIG. 66) is reported as “extremely effective inhibitor of human coronary artery smooth muscle cell proliferation in vitro”. In addition, the “effect of addition on the anti-proliferative rapamycin dose response curve” value in data set [1] (topotecan to 300 nanomolar (FIG. 64), etoposide to eight hundred nanomolar (FIG. 65), Panzem to 100 micromolar (FIG. 68)) was “increases the percent of inhibition of rapamycin alone”. Also, in data set [2], the “cytotoxicity, MTS assay (cell survival)” value is “do not reduce human coronary artery smooth muscle cell survival”.

With `O=C1CCc2cc(OCCCCc3nnnn3C3CCCCC3)ccc2N1` [cilostazol, 6[4-(1-cyclohexyl-1H-tetrazol-5-yl)-butoxy]-3,4-dihydro-2-(1H)-quinolinone], the thrombus formation entry in data set [3] was “significantly reduces thrombus formation”. Moreover, the “drug remaining in the drug coating” value in data set [4] was about 80%.

As a reminder, the IC50 is the midpoint of a concentration-inhibition curve. Turning to `CC(/C=C/C(=O)NO)=C\[C@@H](C)C(=O)c1ccc(N(C)C)cc1` [trichostatin A], the IC50 in data set [5] (human coronary artery smooth muscle cell proliferation, read-out: anti-proliferative IC50) was about 6 nM. The “inhibition of human coronary artery smooth muscle cell proliferation” value in data set [5] (in vitro cell culture) is “completely inhibit”. In the data set with tumor cell lines, the “anti-proliferative IC50” value is “low nM range”.
